The target of one data set is T1, Cathepsin B (Bos taurus, UniProt P07688).
T1 construct: purchased Sigma C6286
As to the kind of experiment: Cathepsin B release of fumagillol analogs from HPMA conjugates. It is filed as in vitro ADME. As to conditions: 40 nM Cathepsin B, approximately 2.5 mg/mL test agent, pH 5.5 or 6.8, 37° C., 0-24 hour, LC/MS/MS. On the procedure:
Cathepsin B (Sigma Cat # C6286 Lot #025K7672) was diluted to a 10× concentration in activation buffer consisting of approximately 400 nM enzyme, 30 mM DTT, 15 mM EDTA and acetate buffer, pH=5.5 for 15 minutes at room temperature.
The HPMA conjugates were made into a 10× stock solution in pH 5.5 buffer. The final reaction was performed by diluting the enzyme and substrate 10 fold into either buffer at pH=5.5 or pH=6.8. The final enzymatic reaction consisted of 40 nM Cathepsin B, approximately 2.5 mg/mL test agent, and buffer at 37° C. The reaction was stopped at 0, 2, 6, and 24 hour. To stop the reaction, 3 volumes of ice-cold methanol containing propranolol internal standard (at 1.0 μM) was added and left on ice. The samples were then analyzed by LC/MS/MS.

The subject of a further data set is HUVEC cells. As to the kind of experiment: Human umbilical vein epithelial cell viability assay (CellTiter-Glo). The data set is classed as cell-based. As to conditions: small molecules, 72 hours exposure. The procedure:
(§1) Test compounds, small molecules or polymer conjugates, were dissolved in dimethyl sulfoxide to a stock concentration of 5 mg/mL. The test agents were then diluted to an intermediate concentration at 200 μg/mL in 10% DMSO. Further dilutions were completed serially 3-fold in 10% DMSO to produce 12 decreasing concentrations for in-vitro analysis. To achieve the target concentrations of the in-vitro assays, […] of the intermediate drug preparation was delivered to the cells (seeded in a volume of 50 μL). The final DMSO concentration for the tests was 0.2% for all doses of test agent.
(§2) Data are expressed as the percent cell growth of the untreated (vehicle) control calculated from the luminescence signals. The surviving fraction of cells is determined by dividing the mean luminescence values of the test agents by the mean luminescence values of untreated control. The inhibitory concentration value for the test agent(s) and control were estimated using Prism 5 software (GraphPad Software, Inc.) by curve-fitting the data using the non-linear regression analysis.
The Human umbilical vein epithelial cells (HUVEC) were obtained from Lonza (Basel, Switzerland). The HUVEC line was grown in Endothelial Growth Medium with supplements and growth factors (BBE, hydrocortisone, hEGF, FBS and gentamicin/amphotericin-B). All cells were housed in an atmosphere of 5% CO2 at 37° C. Cells were dissociated with 0.05% Trypsin and 0.02% EDTA.
HUVEC cells were seeded at 1000 cells per well 24 hours prior to test agent exposure in a volume of […]. Cells were exposed to twelve increasing concentrations of formulated test agent from 2.3×10^−6 to 4.02 μg/mL for 72 hours. Following 72 hour exposure, […] of CellTiter-Glog® Reagent was added to each well. The plates were incubated for 60 minutes at 37° C. in a humidified incubator. After incubation, luminescence was recorded using the Molecular Devices AnalystGT multi-mode reader.
(In ATP-based viability assays light output follows the ATP content of the culture.)

The conditions of data set [1]: for T ½: buffer; for Natural Rate Constant: 37° C., 5 μM.
Method: At the appropriate time points, a 50 μL sample was withdrawn and diluted with three volumes of methanol containing propranolol as an internal standard (one solution was made for the entire study). The concentration of carbamoylfumagillol in the solution was analyzed by LC/MS/MS over seven days.
The conditions of data set [2]: in man; as metabolite of TNP-470; cited from earlier work.
For a further data set, the system named is HCT-116 cells. As to the kind of experiment: HCT-116 human colon tumor cell viability assay (CellTiter-Glo). It is filed as cell-based. The note with it: small molecules, 72 hours exposure. On the procedure:
as §1, §2
The human tumor cell lines A549 and HCT-116 were obtained from American Type Culture Collection (Manassas, Va.). The HCT-116 cells were maintained in McCoy's 5a supplemented with 5% FBS. HCT-116 cells were seeded at 500 cells per well 24 hours prior to test agent exposure in a volume of 50 μL. The cells were housed in an atmosphere of 5% CO2 at 37° C. Cells were dissociated with 0.05% Trypsin and 0.02% EDTA.
Cells were exposed to twelve increasing concentrations of formulated test agent from 2.3×10^−6 to 4.02 μg/mL for 72 hours. Following 72 hour exposure, 25 μL of CellTiter-Glo® Reagent was added to each well. The plates were incubated for 60 minutes at 37° C. in a humidified incubator. After incubation, luminescence was recorded using the Molecular Devices AnalystGT multi-mode reader.

In data set [3] the test system is A549 cells. As to the kind of experiment: A549 human non-small cell lung carcinoma cell viability assay (CellTiter-Glo). The data set is classed as cell-based. The note with it: small molecules, 72 hours exposure. On the procedure: as §1
Cells were exposed to twelve increasing concentrations of formulated test agent from 2×10^−6 to 4.0 μg/mL for 72 hours. Following 72 hour exposure, 25 μL of CellTiter-Glo® Reagent was added to each well. The plates were incubated for 60 minutes at 37° C. in a humidified incubator. After incubation, luminescence was recorded using the Molecular Devices AnalystGT multi-mode reader.
as §2
The human tumor cell lines A549 and HCT-116 were obtained from American Type Culture Collection (Manassas, Va.). The Human umbilical vein epithelial cells (HUVEC) were obtained from Lonza (Basel, Switzerland). The A549 cells were maintained RPMI 1640 w/L-glut supplemented with 5% FBS. The HCT-116 cells were maintained in McCoy's 5a supplemented with 5% FBS. The HUVEC line was grown in Endothelial Growth Medium with supplements and growth factors (BBE, hydrocortisone, hEGF, FBS and gentamicin/amphotericin-B). All cells were house in an atmosphere of 5% CO2 at 37° C. Cells were dissociated with 0.05% Trypsin and 0.02% EDTA.
The human tumor cell line A549 was obtained from American Type Culture Collection (Manassas, Va.). The A549 cells were maintained RPMI 1640 w/L-glut supplemented with 5% FBS. A549 cells were seeded at 500 cells per well 24 hours prior to test agent exposure in a volume of 50 μL. The cells were housed in an atmosphere of 5% CO2 at 37° C. Cells were dissociated with 0.05% Trypsin and 0.02% EDTA.

Data set [4] deals with A549 cells. It is filed as in vitro ADME, human. On the procedure: Cells were treated as in Example 51 except that at the end of 72 hour exposure to test agent, the cells were frozen (−70° C.) and stored for subsequent evaluation by LC/MS.
Data set [5] concerns A549 tumor cells vs normal HUVEC cells. As to the kind of experiment: A549/HUVEC selectivity (ratio of IC50s). It is filed as cell-based, human.
A further data set has as its system B16-F10 tumor cells. As to the kind of experiment: In vivo B16-F10 murine melanoma, lung metastases counts. On the set-up: species or system C57B16 female mice. The note with it: 30 mg/kg, qod; sacrificed after 15 days. The procedure:
C57B16 female mice (N=8) were injected (tail vein) with 1×10^5 B16-F10 tumor cells. After one day, mice were treated with polymer conjugates as solutions in saline (IV administration, q4d, four doses except that in one group O-7175 was administered as a single dose on day 1). TNP-470 was used as a positive control, saline as a negative control. Mice were sacrificed after 15 days. Treatment outcomes were assessed by counting lung metastases.

The values that follow come from US10722532B2, “Polymer-conjugated METAP2 inhibitors, and therapeutic methods of use thereof” (SynDevRx, Inc., priority 2010, dated 2020).

≈ marks a conversion by molar mass, not a printed value. Where two headings read alike, the source gives them in different places.

In the case of “poly(HPMA-co-MA-GFLG-NHCH2CH2N(Me)CH2C(O)NHC(O)2-fumagill-6-yl)”, in the data set with Cathepsin B, the “products released by Cathepsin B” value was “fumagillol, carbamoylfumagillol, and fumagil-6-yl (2-aminoethyl)methylcarbamate”.
One may read the half-life as how long it takes for the measured level to halve. Regarding `CO[C@@H]1[C@H](OC(N)=O)CC[C@]2(CO2)[C@H]1[C@@]1(C)O[C@@H]1CC=C(C)C` [Carbamoylfumagillol], the “HUVEC IC50 Average” value in the data set with HUVEC cells was determined as 0.086 ng/mL. Further, the “T ½” value turned out to be 5.38 days in data set [1] (pH 4), 17 days in [1] (pH 5.3), 30.3 days in [1] (pH 6.7) and 25.5 days in data set [1] (pH 8). The “Natural Rate Constant” value worked out at 0.0054 h⁻¹ in [1] (pH 4.0, 10 mM sodium acetate buffer); 0.0017 h⁻¹ in data set [1] (pH 5.3, 10 mM sodium acetate buffer); 0.0010 h⁻¹ in [1] (pH 6.7, potassium phosphate buffer); 0.0011 h⁻¹ in data set [1] (pH 8.0, potassium phosphate buffer). Further, the decomposition result in data set [1] (pH 5.3 to 8.0, 37° C., over the seven day period) is given as “less than 20%”. Also, the half-life in data set [2] was 12 min. Further, the “HCT116 IC50 Average” value in the data set on HCT-116 cells was determined as 1.035 ng/mL. Also, in the data set on A549 cells [3], the “A549 IC50 Average” value was determined as 2.89 ng/mL.
On to “poly[HPMA-co-MA-GFLG-N-(6-aminohexyl)carbamoylfumagillol]”, for which the “Metabolites identified from the treated cells” value in the data set on A549 cells [4] is “N-(6-aminohexyl)carbamoylfumagillol,fumagill-6-yl {6-[(aminoacetyl)amino]hexyl}carbamate, and the epoxide hydrolysis product, (35′,7aR)-7a-(hydroxymethyl)-4-methoxy-3-methyl-2-(3-methylbut-2-en-1-yl)octahydro-1-benzofuran-3-ol-5-yl 6-aminohexyl carbamate”. Besides, in the data set with Cathepsin B, the “products released by Cathepsin B” value is “N-(6-aminohexyl)carbamoylfumagillol and fumagil-6-yl {6-[(aminoacetyl)amino]hexyl}carbamate”.
As for `CO[C@@H]1[C@H](O)CC[C@]2(CO2)[C@H]1[C@@]1(C)O[C@@H]1CC=C(C)C` [Fumagillol], the “HUVEC IC50 Average” value with HUVEC cells is 18.9 ng/mL. The “A549/HUVEC IC50 ratio” value in data set [5] is reported as 1.59. In addition, the “HCT116 IC50 Average” value with HCT-116 cells came out at 45.8 ng/mL. In the data set with A549 cells [3], the “A549 IC50 Average” value worked out at 30.1 ng/mL.
Consider `CO[C@@H]1[C@H](OC(=O)N[C@@H](C(N)=O)C(C)C)CC[C@]2(CO2)[C@H]1[C@@]1(C)O[C@@H]1CC=C(C)C` [Compound O-7177], for which, in the data set on HUVEC cells, the “HUVEC IC50 Average” value came out at 0.101 ng/mL. The “A549/HUVEC IC50 ratio” value in data set [5] is reported as 2.14. For the same compound, the “HCT116 IC50 Average” value in the data set on HCT-116 cells came out at 0.236 ng/mL. Moreover, the “A549 IC50 Average” value with A549 cells [3] is 0.215 ng/mL.
As for “poly(HPMA-co-MA-GFLG-N(Me)CH2CH2N(Me)CH2C(O)NHC(O)2-fumagill-6-yl)”, the “products released by Cathepsin B” value in the data set with Cathepsin B is “fumagillol, carbamoylfumagillol, fumagil-6-yl methyl[2-(methylamino)ethyl]carbamate, and ethyl {2-[(aminoacetyl)(methyl)amino]ethyl}methylcarbamate”.
As usually defined, the IC50 is the concentration that gives 50% inhibition. For `CO[C@@H]1[C@H](OC(=O)NC(=O)CCl)CC[C@]2(CO2)[C@H]1[C@@]1(C)O[C@@H]1CC=C(C)C` [TNP-470, chloroacetylcarbamoylfumagillol], the IC50 was found to be 0.153 ng/mL (≈ 0.381 nM) in the data set with HUVEC cells (Homo sapiens, HUVEC); 2.64 ng/mL (≈ 6.57 nM) with HCT-116 cells (Homo sapiens, HCT-116, read-out: HCT116 IC50 Average); 8.97 ng/mL (≈ 22.3 nM) in the data set with A549 cells [3] (Homo sapiens, A549). Further, the “A549/HUVEC IC50 ratio” value in data set [5] turned out to be 58.53. Moreover, the “Metastases Counts” value in the data set with B16-F10 tumor cells is reported as 39.5.
